According to patent publication US20180251425A1, “2,3,5 TRISUBSTITUTED PYRROLE DERIVATIVES AS TOPOISOMERASE INHIBITORS AND THERAPEUTIC USES THEREOF” (UNIVERSITY OF MYSORE, priority 2015, published 2018):

Columns and labels:
MCF7 = test: Cytotoxicity in MCF7 cells; assay type: cell-based; conditions: Homo sapiens, read-out: Cytotoxicity IC 50 in μM (Cell lines) MCF7
Description: (§1) Human cancer cell lines, K562, MCF7, HeLa and HEK 293T were purchased from National Centre for Cell Science, Pune, India. Cells were grown in RPMI 1640/MEM/DMEM supplemented with 10% heat-inactivated fetal bovine serum (FBS), 100 U/mL of Penicillin, and 100 μg of streptomycin/mL and incubated at 37° C. in a humidified atmosphere containing 5% CO2.
The human T cell leukemia cell line Molt4, Human acute lymphoblastic leukemia (ALL) cell line Nalm6, Human acute myelocytic leukemia (AML) cell line Reh, chronic myelogenous leukemia (CML) cell line K562, Human breast adenocarcinoma cell lines like MCF7 and human kidney cell line HEK 293T (Human embryonic kidney cell line) were selected for the purpose of preliminary anticancer screening of newly synthesized compounds (ASR1 to ASR15). To check the cytotoxicity, trypan blue dye exclusion assays, MTT assay were employed as described earlier Further, Cell cycle analysis, Mitochondrial membrane potential, Annexin-V FITC staining assay were also performed in order to understand the mode of cell death after treatment with ASR6. Further, ASR6 was also tested for its ability to inhibit topoisomerase I and II activity in vitro.
Cytotoxic effect of the newly synthesized compounds against leukemic cells was assessed using 3-(4, 5-dimethyl-2-yl02, 5-diphenyl tetrazolium bromide (MTT) assay. After exposure of compound at different concentration (0.01, 0.1, 0.5, 1, 10, 50 and 100 μM) cells were harvested and transferred into 96 well plate, MTT (5 mg/ml) was added and incubate at 37° C. for 4 h and formazan crystals were dissolved by adding solubilizing agent (10% SDS and 50% dimethyl formamide) for 1 h, finally plate was read at 570 nm (Bio-Rad, USA). Results were represented as inhibition of percentage of cell proliferation in bar diagram (n=3) (FIGS. 1 A, C, E and G).
(§2) To determine the growth inhibitory activity of the drug, 0.5×10^5 cell/ml were plated in 24 well (Biofil, USA.) in 1 ml of complete medium and treated with various concentration of the compound to test, cells were stained with 0.4% trypan blue and counted on a hemocytometer after treatment with compounds at 48 and 72 h time point. Results were represented as number of viable cells/ml in bar diagram (FIGS. 1 B, D, F, and H) (n=3).

[1] = Cytotoxicity in HEK293T cells; assay type: cell-based; conditions: human, HEK293T cells (human embryonic kidney); read-out: Cytotoxicity IC 50 in μM (Cell lines) HEK293T
Description: as §1
The human T cell leukemia cell line Molt4, Human acute lymphoblastic leukemia (ALL) cell line Nalm6, Human acute myelocytic leukemia (AML) cell line Reh, chronic myelogenous leukemia (CML) cell line K562, Human breast adenocarcinoma cell lines like MCF7 and human kidney cell line HEK 293T (Human embryonic kidney cell line) were selected for the purpose of preliminary anticancer screening of newly synthesized compounds (ASR1 to ASR15). […]
as §2, with “Results were represented as number of viable cells/ml in bar diagram (FIGS. 1 B, D, F, and H) (n=3).” left out

Molt4 cells = test: Annexin V-FITC/PI staining for apoptosis; assay type: cell-based, Human; conditions: 0.25 & 0.5 μM, 48 h
Description: To identify induction of apoptosis after treatment withASR6 in Molt4 cells, annexin V-FITC and propidium iodide staining was carried out. Briefly, Molt4 cells (0.5×10^5 cells per ml) were seeded in 24 well plate and treated with ASR6 (0.25 & 0.5 μM; 48 h). Cells were washed with 1× phosphate buffered saline and suspended in cell binding buffer, stained with Annexin V-FITC (0.2 mg/ml) and propidium iodide (0.05 mg/ml)(Santacruz, USA), and incubated in dark for 20 min at room temperature. Finally cells were subjected to FACS analysis (FACSVerse™BD Bioscience, USA) (10,000 cells were acquired). The results were analyzed in WinMDI 2.9 Software, bar diagram was plotted using at least two independent experiments with error bar.

[2] = molecular target: T1, recombinant human DNA topoisomerase I (Homo sapiens, UniProt P11387); test: Topoisomerase I DNA relaxation assay; assay type: biochemical; conditions: 0, 10, 25, 50 and 100 μM, supercoiled pBS-SK+ plasmid, 37° C. 30 min
T1 construct: purchased TopoGEN; Inc
T1 sequence (P11387 1-765): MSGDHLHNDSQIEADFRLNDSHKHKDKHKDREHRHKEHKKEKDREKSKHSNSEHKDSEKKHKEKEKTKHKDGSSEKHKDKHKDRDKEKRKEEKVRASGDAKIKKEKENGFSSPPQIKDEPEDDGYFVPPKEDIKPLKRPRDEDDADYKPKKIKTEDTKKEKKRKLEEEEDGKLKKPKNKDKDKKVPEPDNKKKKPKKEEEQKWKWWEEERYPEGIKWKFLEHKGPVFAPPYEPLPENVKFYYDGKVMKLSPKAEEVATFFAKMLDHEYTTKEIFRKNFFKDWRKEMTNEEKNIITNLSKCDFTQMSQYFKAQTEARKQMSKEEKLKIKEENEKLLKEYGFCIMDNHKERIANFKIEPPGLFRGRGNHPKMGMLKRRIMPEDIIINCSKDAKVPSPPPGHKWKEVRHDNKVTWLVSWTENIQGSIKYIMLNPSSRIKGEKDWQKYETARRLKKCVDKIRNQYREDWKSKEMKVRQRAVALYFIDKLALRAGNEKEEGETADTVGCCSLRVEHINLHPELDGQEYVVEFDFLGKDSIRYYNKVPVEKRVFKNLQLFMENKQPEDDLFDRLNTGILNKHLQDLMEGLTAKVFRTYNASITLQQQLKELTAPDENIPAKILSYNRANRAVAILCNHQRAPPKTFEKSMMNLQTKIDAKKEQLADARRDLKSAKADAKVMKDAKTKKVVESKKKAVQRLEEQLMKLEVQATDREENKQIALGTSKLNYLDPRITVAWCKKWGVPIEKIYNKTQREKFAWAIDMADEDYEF
Description: In order to determine the ability of ASR6 of topoisomerase I activity assay was performed, in a reaction mixture containing supercoiled plasmid DNA (pBS-SK+) was isolated using Gen Elute plasmid miniprep kit (Sigma Aldrich), according to manual instructions. ˜200 ng plasmid and two units of recombinant human DNA topoisomerase I (TopoGEN. Inc) along with the different concentrations of ASR6 (0, 10, 25, 50 and 100 μM) was added at RT for 5 min; equal amount of DMSO was used as vehicle control. Reaction was carried out at 37° C. for 30 min in a relaxation buffer 1× topoI buffer (50 mM Tris-HCl (pH 8.0), 10 mM NaCl, 10 mM MgCl2, 5 mM ATP, 0.5 mM dithiothreitol and 30 μg BSA/ml) and reactions were terminated by adding 5× stop buffer containing 5% sarkosyl, 0.0025% bromophenol blue, 25% glycerol. The DNA samples were electrophoresed on 1% agarose gel at 45 volts for 4 h with 0.5×TBE (Tris-borate-EDTA). The gels were stained for 30 min in milli Q water containing ethidium bromide (0.5 mg/ml) followed by distaining for 30 min in milli Q water and images were taken (FIG. 5). […] Topotecan (Topo I inhibitor) was used as positive control for topoisomerase I.

Compound: CCOC(=O)c1[nH]c(-c2ccc(Cl)cc2)cc1-c1cccnc1 [ASR6, Ethyl 5-(4-chlorophenyl)-3-(pyridin-3-yl)-1H-pyrrole-2-carboxylate]
- IC50 (MCF7): 0.884 µM
- IC50 [1]: 0.866 µM
- Apoptotic cell population (annexin V-FITC/PI) (Molt4 cells): significant increase in apoptotic cell population
- Inhibition of topoisomerase I activity (DNA relaxation) [2]: does not inhibit topoisomerase I activity
